# Laboratory results reported in patent publication US11590139B2, “Substituted aminopurine compounds, compositions thereof, and methods of treatment therewith” (Signal Pharmaceuticals, LLC, priority 2014, dated 2023).
# Where two headings read alike, the source gives them in different places.
# System: Lox-IMVI melanoma cell line
# Assay: Lox-IMVI anti-proliferative assay (growth inhibition, Cell Titer-Glo)
# Format: cell-based, human
# Settings: Homo sapiens
# How it was run: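 Viability read by ATP luminescence (Cell Titer-Glo) at t0 and after 72 h at 37 °C, 5% CO2, with normalisation to DMSO-treated cells. Compound tested at 0.5 nM–10 μM in 3-fold, 10-point series (0.2% DMSO final) on Lox-IMVI in RPMI+10% FBS; IC50 by 4-parameter sigmoidal fit.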
# [1] = Lox-IMVI anti-proliferative assay, IC50 activity level, read-out: Activity
# [2] = Lox-IMVI melanoma cell line, anti-proliferative assay, read-out: Activity (IC50 activity level)
# [3] = IC50 activity level in the cell-based Lox-IMVI anti-proliferative assay, read-out: Activity
SMILES,IC50 [1] [nM],IC50 [3] [nM],further results
"NC(=O)[C@H]1CC[C@@H](n2c(Nc3c(F)cc(F)cc3F)nc3cnc(N[C@@H]4CCC[C@@H](O)C4)nc32)CC1 [Example 418, (1S,4s)-4-(2-((1R,3R)-3-hydroxycyclohexylamino)-8-(2,4,6-trifluorophenylamino)-9H-purin-9-yl)cyclohexanecarboxamide]",> 1000,,
"C[C@]1(C(N)=O)CC[C@@H](n2c(Nc3c(F)cc(Cl)cc3Cl)nc3cnc(N[C@H]4CCC[C@@H](O)C4)nc32)CC1 [Example 628, (1R,4s)-4-(8-(2,4-dichloro-6-fluorophenylamino)-2-((1S,3R)-3-hydroxycyclohexylamino)-9H-purin-9-yl)-1-methylcyclohexanecarboxamide]",,,IC50 [2]: < 250 nM
"C[C@]1(C(N)=O)CC[C@@H](n2c(Nc3c(F)cc(Cl)cc3Cl)nc3cnc(N[C@@H]4CCC[C@@H](O)C4)nc32)CC1 [Example 620, (1S,4s)-4-(8-(2,4-dichloro-6-fluorophenylamino)-2-((1R,3R)-3-hydroxycyclohexylamino)-9H-purin-9-yl)-1-methylcyclohexanecarboxamide]",,,IC50 [2]: 500 to 1000 nM
"CS(=O)(=O)C1CC(Nc2ncc3nc(Nc4c(Cl)cc(C#N)cc4Cl)n([C@H]4CC[C@@H](C(N)=O)CC4)c3n2)C1 (stereo partly shown) [Example 730, (1s,4s)-4-(8-(2,6-dichloro-4-cyanophenylamino)-2-(3-(methylsulfonyl)cyclobutylamino)-9H-purin-9-yl)cyclohexanecarboxamide]",,,IC50 [2]: > 1000 nM
"Cc1ccc(S(=O)(=O)N2CCC[C@@H](Nc3ncc4nc(Nc5c(Cl)cc(C#N)cc5Cl)n([C@H]5CC[C@@H](C(N)=O)CC5)c4n3)C2)cc1 [Example 789, (1S,4s)-4-(8-(2,6-dichloro-4-cyanophenylamino)-2-((R)-1-tosylpiperidin-3-ylamino)-9H-purin-9-yl)cyclohexanecarboxamide]",,,IC50 [2]: > 1000 nM
"NC(=O)[C@H]1CC[C@@H](n2c(Nc3c(Cl)cc(Cl)cc3Cl)nc3cnc(N[C@@H]4CCOC[C@@H]4F)nc32)CC1 [Example 302, (1S,4s)-4-(2-((3R,4R)-3-fluorotetrahydro-2H-pyran-4-ylamino)-8-(2,4,6-trichlorophenylamino)-9H-purin-9-yl)cyclohexanecarboxamide]",,500 to 1000,
"CC[C@H](C)Nc1ncc2nc(Nc3c(F)cccc3F)n([C@H]3CC[C@@H](C(N)=O)CC3)c2n1 [Example 335, (1R,4s)-4-(2-(sec-butylamino)-8-(2,6-difluorophenylamino)-9H-purin-9-yl)cyclohexanecarboxamide]",,> 1000,
"N#Cc1ccc(Nc2nc3cnc(NC4CCOCC4)nc3n2[C@H]2CC[C@@H](C(N)=O)CC2)c(F)c1F [Example 379, (1s,4s)-4-(8-(4-cyano-2,3-difluorophenylamino)-2-(tetrahydro-2H-pyran-4-ylamino)-9H-purin-9-yl)cyclohexanecarboxamide]",,> 1000,
"C[C@]1(C(N)=O)CC[C@@H](n2c(Nc3c(F)cc(F)cc3Cl)nc3cnc(NC4CCCC4)nc32)CC1 [Example 558, (1s,4s)-4-(8-(2-chloro-4,6-difluorophenylamino)-2-(cyclopentylamino)-9H-purin-9-yl)-1-methylcyclohexanecarboxamide]",< 250,,
"NC(=O)[C@H]1CC[C@@H](n2c(Nc3c(F)cc(F)cc3F)nc3cnc(N[C@@H]4CCOC[C@H]4F)nc32)CC1 [Example 276, (1S,4s)-4-(2-((3S,4R)-3-fluorotetrahydro-2H-pyran-4-ylamino)-8-(2,4,6-trifluorophenylamino)-9H-purin-9-yl)cyclohexanecarboxamide]",,< 250,
"NC(=O)[C@H]1CC[C@@H](n2c(Nc3c(F)cc(Cl)cc3F)nc3cnc(N[C@@H]4COC[C@H]4O)nc32)CC1 [Example 316, (1S,4s)-4-(8-(4-chloro-2,6-difluorophenylamino)-2-((3R,4S)-4-hydroxytetrahydrofuran-3-ylamino)-9H-purin-9-yl)cyclohexanecarboxamide]",,> 1000,
"CC(=O)N1CCC[C@@H](Nc2ncc3nc(Nc4c(F)cc(F)cc4Cl)n([C@H]4CC[C@@H](C(N)=O)CC4)c3n2)C1 [Example 797, (1S,4s)-4-(2-((R)-1-acetylpiperidin-3-ylamino)-8-(2-chloro-4,6-difluorophenylamino)-9H-purin-9-yl)cyclohexanecarboxamide]",,,IC50 [2]: > 1000 nM
"C[C@]1(C(N)=O)CC[C@@H](n2c(Nc3c(Cl)cc(C#N)cc3Cl)nc3cnc(NC4CCC(F)(F)CC4)nc32)CC1 [Example 534, (1s,4s)-4-(8-(2,6-dichloro-4-cyanophenylamino)-2-(4,4-difluorocyclohexylamino)-9H-purin-9-yl)-1-methylcyclohexanecarboxamide]",< 250,,
"Cc1cc(F)c(Nc2nc3cnc(NC4CCOCC4)nc3n2[C@H]2CC[C@@H](C(N)=O)CC2)cc1F [Example 106, (1s,4s)-4-(8-(2,5-difluoro-4-methylphenylamino)-2-(tetrahydro-2H-pyran-4-ylamino)-9H-purin-9-yl)cyclohexanecarboxamide]",,> 1000,
"NC(=O)[C@H]1CC[C@@H](n2c(Nc3c(F)cc(Cl)cc3F)nc3cnc(N[C@@H]4CCCC[C@H](O)C4)nc32)CC1 [Example 438, (1S,4s)-4-(8-(4-chloro-2,6-difluorophenylamino)-2-((1R,3S)-3-hydroxycycloheptylamino)-9H-purin-9-yl)cyclohexanecarboxamide]",> 1000,,
"NC(=O)[C@H]1CC[C@@H](n2c(Nc3c(F)cc(F)cc3Cl)nc3cnc(NC[C@@H]4CCCC[C@H]4O)nc32)CC1 [Example 660, (1R,4s)-4-(8-(2-chloro-4,6-difluorophenylamino)-2-(((1S,2R)-2-hydroxycyclohexyl)methylamino)-9H-purin-9-yl)cyclohexanecarboxamide]",,,IC50 [2]: > 1000 nM

# Now from value to compound, other results behind:
IC50 [1] [nM],IC50 [3] [nM],SMILES,further results
250 to 500,,"NC(=O)[C@H]1CC[C@@H](n2c(Nc3c(Cl)cc(C(F)(F)F)cc3Cl)nc3cnc(NC4CCOCC4)nc32)CC1 [Example 442, (1s,4s)-4-(8-(2,6-dichloro-4-(trifluoromethyl)phenylamino)-2-(tetrahydro-2H-pyran-4-ylamino)-9H-purin-9-yl)cyclohexanecarboxamide]",
> 1000,,"NC(=O)[C@H]1CC[C@@H](n2c(Nc3c(F)cc(F)cc3Cl)nc3cnc(N[C@@H]4CCC[C@@H](O)C4)nc32)CC1 [Example 420, (1S,4s)-4-(8-(2-chloro-4,6-difluorophenylamino)-2-((1R,3R)-3-hydroxycyclohexylamino)-9H-purin-9-yl)cyclohexanecarboxamide]",
> 1000,,"NC(=O)[C@H]1CC[C@@H](n2c(Nc3ccc(Cl)c(F)c3F)nc3cnc(N[C@H]4CCC[C@H](O)C4)nc32)CC1 [Example 463, (1R,4s)-4-(8-(4-chloro-2,3-difluorophenylamino)-2-((1S,3S)-3-hydroxycyclohexylamino)-9H-purin-9-yl)cyclohexanecarboxamide]",
,500 to 1000,"NC(=O)[C@H]1CC[C@@H](n2c(Nc3c(Cl)cc(Cl)cc3Cl)nc3cnc(NCC4CCC4)nc32)CC1 [Example 110, (1s,4s)-4-(2-(cyclobutylmethylamino)-8-(2,4,6-trichlorophenylamino)-9H-purin-9-yl)cyclohexanecarboxamide]",
,500 to 1000,"NC(=O)[C@H]1CC[C@@H](n2c(Nc3c(F)cc(Cl)cc3Cl)nc3cnc(N[C@H]4C[C@H](O)C4)nc32)CC1 [Example 301, (1s,4s)-4-(8-(2,4-dichloro-6-fluorophenylamino)-2-((1r,3r)-3-hydroxycyclobutylamino)-9H-purin-9-yl)cyclohexanecarboxamide]",
,500 to 1000,"NC(=O)[C@H]1CC[C@@H](n2c(Nc3c(Cl)cc(Cl)cc3Cl)nc3cnc(NC4COCC4O)nc32)CC1 (stereo partly shown) [Example 181, (1s,4s)-4-(2-(4-hydroxytetrahydrofuran-3-ylamino)-8-(2,4,6-trichlorophenylamino)-9H-purin-9-yl)cyclohexanecarboxamide]",
,250 to 500,"NC(=O)[C@H]1CC[C@@H](n2c(Nc3c(Cl)cc(F)cc3Cl)nc3cnc(NC4CCC(F)(F)CC4)nc32)CC1 [Example 201, (1s,4s)-4-(8-(2,6-dichloro-4-fluorophenylamino)-2-(4,4-difluorocyclohexylamino)-9H-purin-9-yl)cyclohexanecarboxamide]",
,500 to 1000,"NC(=O)[C@H]1CC[C@@H](n2c(Nc3c(Cl)ccc(F)c3F)nc3cnc(NC4CCOCC4)nc32)CC1 [Example 113, (1s,4s)-4-(8-(6-chloro-2,3-difluorophenylamino)-2-(tetrahydro-2H-pyran-4-ylamino)-9H-purin-9-yl)cyclohexanecarboxamide]",
> 1000,,"COC(=O)N1CCCC(Nc2ncc3nc(Nc4c(Cl)cccc4Cl)n([C@H]4CC[C@@H](C(N)=O)CC4)c3n2)C1 (stereo partly drawn) [Example 405, (R)-methyl 3-(9-((1s,4S)-4-carbamoylcyclohexyl)-8-(2,6-dichlorophenylamino)-9H-purin-2-ylamino)piperidine-1-carboxylate]",
,> 1000,"NC(=O)[C@H]1CC[C@@H](n2c(Nc3c(F)ccc(Cl)c3F)nc3cnc(N[C@@H]4CCC[C@H]4O)nc32)CC1 [Example 259, (1S,4s)-4-(8-(3-chloro-2,6-difluorophenylamino)-2-((1R,2R)-2-hydroxycyclopentylamino)-9H-purin-9-yl)cyclohexanecarboxamide]",
,250 to 500,"NC(=O)[C@H]1CC[C@@H](n2c(Nc3c(Cl)cccc3Cl)nc3cnc(NC4CCC(F)(F)CC4)nc32)CC1 [Example 236, (1s,4s)-4-(8-(2,6-dichlorophenylamino)-2-(4,4-difluorocyclohexylamino)-9H-purin-9-yl)cyclohexanecarboxamide]",
> 1000,,"NC(=O)[C@H]1CC[C@@H](n2c(Nc3c(Cl)cc(Cl)cc3Cl)nc3cnc(N[C@@H]4CCCC[C@H](O)C4)nc32)CC1 [Example 439, (1S,4s)-4-(2-((1R,3S)-3-hydroxycycloheptylamino)-8-(2,4,6-trichlorophenylamino)-9H-purin-9-yl)cyclohexanecarboxamide]",
